Calls of active or inactive are those of the source.
How the values were obtained:
Phospholipase A2 = Phospholipase A2 (Homo sapiens, UniProt P04054); assay: PLA2 enzyme inhibitors, dose response, counter-screen for ATG4B inhibitor project, biochemical, set 2 (AID 588586); assay type: functional
[1] = cytotoxicity in HEK-293T cells, dose response, cytotoxicity control for TCR NF-kB inhibitor project, luminescence, T-cell screen hits (AID 489026); assay type: functional, cell-based;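 further: cells exposed to compound about 14 hours before the viability readout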
Cysteine protease ATG4B = target: T1, Cysteine protease ATG4B (Homo sapiens, UniProt Q9Y4P1); assay: ATG4B protease inhibitors, dose response, biochemical, fluorescence, set 2 (AID 588584); assay type: functional
T1 sequence (Q9Y4P1 whole entry): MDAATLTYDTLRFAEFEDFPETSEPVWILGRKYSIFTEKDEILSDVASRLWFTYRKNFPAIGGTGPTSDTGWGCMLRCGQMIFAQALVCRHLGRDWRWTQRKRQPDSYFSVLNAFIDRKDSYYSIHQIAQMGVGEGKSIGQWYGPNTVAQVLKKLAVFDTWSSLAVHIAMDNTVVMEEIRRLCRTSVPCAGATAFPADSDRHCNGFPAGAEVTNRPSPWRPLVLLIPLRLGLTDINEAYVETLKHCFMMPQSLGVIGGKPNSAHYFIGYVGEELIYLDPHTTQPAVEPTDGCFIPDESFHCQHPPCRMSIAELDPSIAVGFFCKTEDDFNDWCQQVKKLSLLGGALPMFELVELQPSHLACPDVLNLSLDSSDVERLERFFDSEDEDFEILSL

[2] = Luminescence Cell-Based Dose Retest to Confirm Inhibitors of Cancer Stem Cells. [Related pubchem assays (depositor defined):AID2717, AID2721]; assay type: functional; details: Homo sapiens
[3] = HeLa cell cytotoxicity, dose response, cytotoxicity control for MgcRacGAP inhibitor project (AID 624300); assay type: functional
[4] = target: Glucose-6-phosphate 1-dehydrogenase (Homo sapiens, UniProt P11413); assay: human G6PD enzyme inhibitors, dose response, selectivity assay for P. falciparum G6PD inhibitor project, biochemical, fluorescence (AID 504792); assay type: functional
[5] = target: T2, Rac GTPase-activating protein 1 (Homo sapiens, UniProt Q9H0H5); assay: MgcRacGAP GTPase-activating activity inhibitors, confirmation, biochemical, ADP Hunter fluorescence, primary and confirmatory (AID 624330); assay type: functional
T2 sequence (Q9H0H5 whole entry): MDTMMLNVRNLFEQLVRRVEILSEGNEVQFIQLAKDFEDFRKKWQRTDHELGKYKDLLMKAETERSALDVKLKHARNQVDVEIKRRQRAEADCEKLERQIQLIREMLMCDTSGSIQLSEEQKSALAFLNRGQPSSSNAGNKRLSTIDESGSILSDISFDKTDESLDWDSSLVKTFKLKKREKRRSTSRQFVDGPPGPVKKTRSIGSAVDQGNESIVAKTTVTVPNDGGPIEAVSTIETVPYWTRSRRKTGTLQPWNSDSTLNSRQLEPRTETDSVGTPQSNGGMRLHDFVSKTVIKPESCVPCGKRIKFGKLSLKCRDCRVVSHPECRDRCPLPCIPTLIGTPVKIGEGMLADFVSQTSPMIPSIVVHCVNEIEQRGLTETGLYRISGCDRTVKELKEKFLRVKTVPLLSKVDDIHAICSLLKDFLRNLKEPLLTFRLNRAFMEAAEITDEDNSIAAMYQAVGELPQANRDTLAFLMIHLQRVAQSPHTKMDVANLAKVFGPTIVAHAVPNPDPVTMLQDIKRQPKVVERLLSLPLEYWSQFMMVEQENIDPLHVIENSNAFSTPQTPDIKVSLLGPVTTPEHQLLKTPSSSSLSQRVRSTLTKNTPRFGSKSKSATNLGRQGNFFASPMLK

Hexokinase-1 = Hexokinase-1 (Homo sapiens, UniProt P19367); assay: SAR analysis of small molecule inhibitors of hexokinase domain containing I (HKDC1) in the hexokinase 1 selectivity assay. [Related pubchem assays (depositor defined):AID493160, AID493190]; assay type: functional
Hexokinase HKDC1 = Hexokinase HKDC1 (Homo sapiens, UniProt Q2TB90); assay: SAR analysis of small molecule inhibitors of hexokinase domain containing I (HKDC1). [Related pubchem assays (depositor defined):AID493160, AID493190]; assay type: functional
[6] = target: T3, Sentrin-specific protease 7 (Homo sapiens, UniProt Q9BQF6); assay: SENP7 protease inhibitors, SAR follow-up, biochemical, luminescence, set 2 (AID 588600); assay type: functional
T3 sequence (Q9BQF6 whole entry): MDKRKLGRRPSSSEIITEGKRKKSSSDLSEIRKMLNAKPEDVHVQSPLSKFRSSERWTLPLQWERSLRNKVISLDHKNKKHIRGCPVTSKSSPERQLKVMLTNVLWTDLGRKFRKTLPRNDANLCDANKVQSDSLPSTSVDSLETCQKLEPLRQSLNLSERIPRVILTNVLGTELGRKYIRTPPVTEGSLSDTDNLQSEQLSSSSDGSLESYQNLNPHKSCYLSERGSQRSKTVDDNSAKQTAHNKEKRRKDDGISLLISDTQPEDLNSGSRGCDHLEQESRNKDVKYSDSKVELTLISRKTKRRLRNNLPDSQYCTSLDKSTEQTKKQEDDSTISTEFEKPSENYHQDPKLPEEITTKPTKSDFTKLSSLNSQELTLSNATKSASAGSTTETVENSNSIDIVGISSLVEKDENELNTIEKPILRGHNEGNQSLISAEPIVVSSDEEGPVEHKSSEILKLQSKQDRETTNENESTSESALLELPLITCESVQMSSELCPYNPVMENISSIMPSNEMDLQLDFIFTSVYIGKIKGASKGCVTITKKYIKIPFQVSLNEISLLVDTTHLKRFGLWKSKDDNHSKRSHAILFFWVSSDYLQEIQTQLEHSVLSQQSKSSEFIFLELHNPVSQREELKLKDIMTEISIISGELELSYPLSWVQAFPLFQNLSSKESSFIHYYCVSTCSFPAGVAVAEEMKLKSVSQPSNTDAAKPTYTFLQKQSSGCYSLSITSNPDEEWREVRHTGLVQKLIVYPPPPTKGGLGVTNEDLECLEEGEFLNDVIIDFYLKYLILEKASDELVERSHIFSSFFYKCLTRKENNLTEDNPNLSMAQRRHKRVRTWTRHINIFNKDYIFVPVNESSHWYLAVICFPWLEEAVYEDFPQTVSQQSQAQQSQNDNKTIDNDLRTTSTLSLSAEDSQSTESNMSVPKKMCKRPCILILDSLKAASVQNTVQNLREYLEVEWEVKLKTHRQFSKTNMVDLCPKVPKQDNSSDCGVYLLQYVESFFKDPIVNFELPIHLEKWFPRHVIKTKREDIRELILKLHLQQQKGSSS

[7] = target: T4, Sentrin-specific protease 8 (Homo sapiens, UniProt Q96LD8); assay: SENP8 protease inhibitors, SAR follow-up, biochemical, luminescence, set 2 (AID 588601); assay type: functional
T4 sequence (Q96LD8 whole entry): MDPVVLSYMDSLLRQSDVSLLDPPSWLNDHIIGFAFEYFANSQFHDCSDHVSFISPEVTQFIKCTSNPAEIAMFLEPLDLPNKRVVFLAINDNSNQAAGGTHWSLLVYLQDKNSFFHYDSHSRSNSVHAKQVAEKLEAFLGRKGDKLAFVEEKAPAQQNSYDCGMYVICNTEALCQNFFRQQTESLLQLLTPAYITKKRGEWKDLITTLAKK

Caspase-3 = target: T5, Caspase-3 (Homo sapiens, UniProt P42574); assay: caspase-3 inhibitors as off-family protease, SAR follow-up, selectivity assay for SENP protease inhibitor project, biochemical, luminescence, set 2 (AID 588599); assay type: functional
T5 sequence (P42574 whole entry): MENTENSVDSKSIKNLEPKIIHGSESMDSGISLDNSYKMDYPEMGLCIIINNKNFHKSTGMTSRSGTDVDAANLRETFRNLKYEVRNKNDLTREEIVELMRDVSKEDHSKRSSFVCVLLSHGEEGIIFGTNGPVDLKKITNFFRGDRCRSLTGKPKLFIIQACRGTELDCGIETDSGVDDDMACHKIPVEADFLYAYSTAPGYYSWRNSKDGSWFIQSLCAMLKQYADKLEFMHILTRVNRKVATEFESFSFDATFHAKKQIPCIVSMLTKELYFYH

[8] = target: T6, Sentrin-specific protease 6 (Homo sapiens, UniProt Q9GZR1); assay: SENP6 protease inhibitors, SAR follow-up, biochemical, luminescence, set 2 (AID 588598); assay type: functional
T6 sequence (Q9GZR1 whole entry): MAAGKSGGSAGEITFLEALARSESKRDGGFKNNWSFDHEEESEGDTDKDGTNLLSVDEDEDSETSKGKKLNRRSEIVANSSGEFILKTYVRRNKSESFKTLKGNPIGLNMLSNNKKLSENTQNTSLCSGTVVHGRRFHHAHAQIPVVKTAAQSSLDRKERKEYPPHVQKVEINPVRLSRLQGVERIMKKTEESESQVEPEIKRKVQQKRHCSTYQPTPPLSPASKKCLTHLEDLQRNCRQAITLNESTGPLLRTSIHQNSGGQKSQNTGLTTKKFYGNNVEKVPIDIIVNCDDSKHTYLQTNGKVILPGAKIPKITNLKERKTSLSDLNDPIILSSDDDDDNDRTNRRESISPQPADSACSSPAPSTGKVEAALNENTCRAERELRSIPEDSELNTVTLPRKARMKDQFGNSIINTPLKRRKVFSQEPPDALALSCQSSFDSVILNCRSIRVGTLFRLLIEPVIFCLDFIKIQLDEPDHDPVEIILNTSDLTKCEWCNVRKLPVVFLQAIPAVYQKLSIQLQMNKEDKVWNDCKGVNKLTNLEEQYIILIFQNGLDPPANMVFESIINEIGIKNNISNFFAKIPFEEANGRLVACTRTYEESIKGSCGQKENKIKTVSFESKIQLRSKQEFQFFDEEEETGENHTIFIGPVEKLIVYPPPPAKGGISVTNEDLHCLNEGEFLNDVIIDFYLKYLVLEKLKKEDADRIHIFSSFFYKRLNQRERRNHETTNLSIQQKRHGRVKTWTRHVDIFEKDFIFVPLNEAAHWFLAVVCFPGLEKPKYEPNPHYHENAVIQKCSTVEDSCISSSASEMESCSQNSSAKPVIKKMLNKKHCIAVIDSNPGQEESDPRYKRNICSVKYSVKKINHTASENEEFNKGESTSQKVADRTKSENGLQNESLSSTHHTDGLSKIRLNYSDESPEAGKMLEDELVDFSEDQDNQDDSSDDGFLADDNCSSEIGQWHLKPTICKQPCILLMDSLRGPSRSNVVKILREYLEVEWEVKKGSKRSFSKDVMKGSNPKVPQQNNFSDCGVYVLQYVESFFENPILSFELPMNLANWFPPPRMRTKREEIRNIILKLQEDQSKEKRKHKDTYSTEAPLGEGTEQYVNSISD

[9] = cytotoxicity in HEK-293T NF-kB-Luc cells, dose response, cytotoxicity control for B/T-cell NF-kB inhibitor project, cell-based, uHTS hits (AID 489019); assay type: functional;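 further: IC50 reflects cytotoxicity as loss of cell viability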
[10] = target: T7, Microphthalmia-associated transcription factor (Homo sapiens, UniProt O75030); assay: TRPM1 promoter luciferase signal decrease, dose response, MITF inhibitor project, cell-based, SK-MEL-5, cherry-picked, set 3 (AID 493073); assay type: functional
T7 sequence (O75030 whole entry): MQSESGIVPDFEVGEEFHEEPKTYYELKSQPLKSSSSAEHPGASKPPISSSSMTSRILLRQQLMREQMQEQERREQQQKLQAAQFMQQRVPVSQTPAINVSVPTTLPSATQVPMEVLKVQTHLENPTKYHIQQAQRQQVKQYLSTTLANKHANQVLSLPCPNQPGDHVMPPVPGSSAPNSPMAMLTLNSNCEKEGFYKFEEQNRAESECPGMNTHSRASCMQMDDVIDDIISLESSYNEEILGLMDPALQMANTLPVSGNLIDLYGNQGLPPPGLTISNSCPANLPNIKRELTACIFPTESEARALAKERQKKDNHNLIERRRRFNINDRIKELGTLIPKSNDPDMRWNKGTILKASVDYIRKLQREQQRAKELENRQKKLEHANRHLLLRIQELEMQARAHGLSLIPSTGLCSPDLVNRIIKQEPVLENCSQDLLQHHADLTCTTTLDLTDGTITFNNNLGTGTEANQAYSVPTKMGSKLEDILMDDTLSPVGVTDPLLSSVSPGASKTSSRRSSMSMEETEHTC

Jurkat = assay: antigen receptor-induced NF-kB inhibitors, dose response, Jurkat, luciferase reporter, luminescence, B- and T-cell (AID 489004); assay type: functional, cell-based; details: Homo sapiens;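 further: NF-kB luciferase reporter Jurkat cells stimulated with PMA plus ionomycin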
[11] = A Cell Based Secondary Assay To Explore Cytotoxicity of Compounds that Sensitize Mycobacterium Tuberculosis to Beta-Lactam Antibiotics.; assay type: functional
Escherichia coli = assay: microbe, parasite or virus in culture
[12] = target: Dual specificity protein kinase CLK1 (Homo sapiens, UniProt P49759); assay: CLK1 kinase inhibitors, off-target check, dose response, selectivity assay for Dyrk1A inhibitor project, biochemical, cherry-picked samples (AID 588811)
Sequence of Dual specificity protein kinase CLK1 (P49759 whole entry): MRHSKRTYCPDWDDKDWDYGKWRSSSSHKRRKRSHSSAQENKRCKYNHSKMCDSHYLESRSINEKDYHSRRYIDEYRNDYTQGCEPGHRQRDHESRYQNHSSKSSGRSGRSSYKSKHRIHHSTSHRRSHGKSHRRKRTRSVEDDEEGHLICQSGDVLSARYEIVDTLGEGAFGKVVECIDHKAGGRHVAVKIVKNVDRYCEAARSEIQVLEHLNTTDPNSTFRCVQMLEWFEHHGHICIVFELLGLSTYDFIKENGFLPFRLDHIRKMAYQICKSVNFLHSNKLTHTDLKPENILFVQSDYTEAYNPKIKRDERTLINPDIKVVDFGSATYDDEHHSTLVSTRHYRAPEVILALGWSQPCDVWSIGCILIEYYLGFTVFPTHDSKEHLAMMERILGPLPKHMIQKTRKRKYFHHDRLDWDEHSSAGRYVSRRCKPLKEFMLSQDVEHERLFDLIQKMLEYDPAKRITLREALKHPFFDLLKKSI

Sequence of Glucose-6-phosphate 1-dehydrogenase (P11413 whole entry): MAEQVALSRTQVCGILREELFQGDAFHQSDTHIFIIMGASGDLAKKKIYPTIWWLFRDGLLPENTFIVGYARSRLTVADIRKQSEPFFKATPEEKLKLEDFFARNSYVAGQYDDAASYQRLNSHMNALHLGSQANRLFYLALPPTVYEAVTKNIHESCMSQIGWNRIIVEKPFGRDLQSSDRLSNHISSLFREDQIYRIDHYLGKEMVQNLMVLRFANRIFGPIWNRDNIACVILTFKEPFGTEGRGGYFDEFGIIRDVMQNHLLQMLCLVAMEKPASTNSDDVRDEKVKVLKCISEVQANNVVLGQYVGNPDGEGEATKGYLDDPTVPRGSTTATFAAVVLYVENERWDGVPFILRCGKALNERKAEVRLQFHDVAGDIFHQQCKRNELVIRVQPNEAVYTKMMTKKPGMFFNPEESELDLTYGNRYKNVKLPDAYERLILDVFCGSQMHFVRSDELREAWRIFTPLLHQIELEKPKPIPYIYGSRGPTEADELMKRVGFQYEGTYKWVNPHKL
Sequence of Hexokinase HKDC1 (Q2TB90 whole entry, the tested form may be a part): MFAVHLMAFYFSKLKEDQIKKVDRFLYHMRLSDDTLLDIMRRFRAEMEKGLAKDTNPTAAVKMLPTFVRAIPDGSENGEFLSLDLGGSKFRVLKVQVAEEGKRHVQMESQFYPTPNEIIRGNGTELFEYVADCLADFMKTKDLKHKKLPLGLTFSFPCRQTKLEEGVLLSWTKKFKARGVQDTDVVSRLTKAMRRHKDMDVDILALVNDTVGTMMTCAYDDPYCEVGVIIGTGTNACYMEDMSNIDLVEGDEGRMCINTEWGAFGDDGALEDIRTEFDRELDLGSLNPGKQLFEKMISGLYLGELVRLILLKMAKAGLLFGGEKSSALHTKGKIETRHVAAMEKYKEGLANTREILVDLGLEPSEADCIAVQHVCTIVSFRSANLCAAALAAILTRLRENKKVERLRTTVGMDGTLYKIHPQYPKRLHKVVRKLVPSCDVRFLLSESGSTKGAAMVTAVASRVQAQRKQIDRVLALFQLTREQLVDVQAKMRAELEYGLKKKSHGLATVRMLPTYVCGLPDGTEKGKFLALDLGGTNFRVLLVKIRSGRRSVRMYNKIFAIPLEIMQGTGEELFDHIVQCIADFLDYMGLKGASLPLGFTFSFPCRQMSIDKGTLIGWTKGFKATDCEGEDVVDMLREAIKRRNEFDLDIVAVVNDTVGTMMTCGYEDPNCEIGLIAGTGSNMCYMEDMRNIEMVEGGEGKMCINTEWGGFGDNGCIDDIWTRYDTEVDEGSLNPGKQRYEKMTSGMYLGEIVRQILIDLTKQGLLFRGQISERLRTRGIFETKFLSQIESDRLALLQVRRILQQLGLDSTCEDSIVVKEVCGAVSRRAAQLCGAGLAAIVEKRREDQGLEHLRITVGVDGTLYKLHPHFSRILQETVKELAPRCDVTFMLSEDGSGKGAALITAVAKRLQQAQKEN
Sequence of Hexokinase-1 (P19367 whole entry, the tested form may be a part): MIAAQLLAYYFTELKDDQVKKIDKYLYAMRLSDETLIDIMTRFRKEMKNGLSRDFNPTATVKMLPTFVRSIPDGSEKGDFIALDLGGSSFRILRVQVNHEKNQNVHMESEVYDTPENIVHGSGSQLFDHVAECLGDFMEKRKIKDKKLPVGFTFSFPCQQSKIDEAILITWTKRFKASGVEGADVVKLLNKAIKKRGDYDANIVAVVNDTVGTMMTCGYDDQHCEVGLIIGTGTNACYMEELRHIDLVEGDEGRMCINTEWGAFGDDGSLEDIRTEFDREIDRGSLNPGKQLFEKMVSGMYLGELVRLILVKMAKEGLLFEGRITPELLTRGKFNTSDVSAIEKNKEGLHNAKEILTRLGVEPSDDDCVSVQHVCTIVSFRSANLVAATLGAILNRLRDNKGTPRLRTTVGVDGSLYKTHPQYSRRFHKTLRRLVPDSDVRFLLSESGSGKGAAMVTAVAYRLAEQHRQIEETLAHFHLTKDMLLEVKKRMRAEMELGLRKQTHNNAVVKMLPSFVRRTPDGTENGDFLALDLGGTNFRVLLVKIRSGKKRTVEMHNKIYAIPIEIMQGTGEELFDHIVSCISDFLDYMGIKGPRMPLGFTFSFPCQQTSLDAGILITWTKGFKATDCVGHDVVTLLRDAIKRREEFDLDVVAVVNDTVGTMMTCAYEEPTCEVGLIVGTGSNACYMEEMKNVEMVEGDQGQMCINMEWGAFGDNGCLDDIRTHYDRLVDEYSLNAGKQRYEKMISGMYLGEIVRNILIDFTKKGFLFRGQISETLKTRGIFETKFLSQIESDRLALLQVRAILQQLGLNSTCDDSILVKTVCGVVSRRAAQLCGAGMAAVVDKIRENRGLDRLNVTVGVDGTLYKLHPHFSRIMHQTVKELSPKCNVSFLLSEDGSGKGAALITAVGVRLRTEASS
Sequence of Phospholipase A2 (P04054 whole entry): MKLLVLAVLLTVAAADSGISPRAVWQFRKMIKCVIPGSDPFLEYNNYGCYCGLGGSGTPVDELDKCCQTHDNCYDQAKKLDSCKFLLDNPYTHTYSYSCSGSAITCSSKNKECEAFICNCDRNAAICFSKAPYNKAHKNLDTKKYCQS

Question: What does the source list for CC1=Nc2ccccc2/C1=C\c1sc(Nc2ccc(C)cc2)nc1O?
Answer: IC50 (Phospholipase A2): 22.3 µM (inactive); IC50 [1]: 45.8 µM (inactive); IC50 (Cysteine protease ATG4B): 30.6 µM (inactive); AC50 [2]: 0.546 µM (active)

Question: With O=C1C(=Cc2cccc(O)c2O)SC(=S)N1CCCN1CCOCC1 as the compound, how does the CC50 [3] read?
Answer: 100 µM (active)

Question: And the IC50 [4]?
Answer: > 80 µM (inactive)

Question: And the IC50 [5]?
Answer: 45.5 µM (active)

Question: For O=c1c2ccccc2nc(/C=C/c2ccncc2)n1Cc1ccccc1, which IC50 (Hexokinase-1) is on record?
Answer: > 80 µM (inactive)

Question: What about the IC50 (Hexokinase HKDC1) of the same compound?
Answer: > 80 µM (inactive)

Question: What does the source list for COc1ccc(N2CC(C(=O)N/N=C/c3c[nH]c4ccccc34)CC2=O)cc1 (stereo not given)?
Answer: IC50 [6]: > 99 µM (inactive); IC50 [7]: > 99 µM (inactive); IC50 (Caspase-3): > 99 µM (inactive); IC50 [8]: > 99 µM (inactive)

Question: Which IC50 [9] does the source give for O=C(COC(=O)c1cccnc1O)Nc1ccc(N2CCCCC2)cc1 here?
Answer: > 80 µM (inactive)

Question: And the AC50 [10]?
Answer: 1.03 µM (active)

Question: What about the IC50 (Jurkat) of the same compound?
Answer: 0.19 µM (active)

Question: With Cc1nc(Nc2ccc(Cl)cc2Cl)sc1C(=O)Nc1ccccc1 as the compound, how does the CC50 [11] read?
Answer: > 40 µM (active)

Question: What about the AC50 (Escherichia coli) of the same compound?
Answer: 56.1 µM (active)

Question: And the AC50 [2]?
Answer: 7.83 µM (active)

Question: For Cc1ccc(CNc2ncnc3ccc(-c4ccoc4C)cc23)o1, which AC50 [12] is on record?
Answer: 0.695 µM (active)

— ChEMBL document CHEMBL1201862, “PubChem BioAssay data set” (2004)
